Key:
Raji [1] = experiment: Inhibition of tumor promotion in human Raji cells assessed as TPA-induced Epstein-Barr virus early antigen activation at 500 mol ratio/TPA after 48 hrs by indirect immunofluorescence analysis relative to TPA alone; type: functional; set-up: scale not given: the % may be the effect or the level left
Raji [2] = experiment: Inhibition of tumor promotion in human Raji cells assessed as TPA-induced Epstein-Barr virus early antigen activation at 10 mol ratio/TPA after 48 hrs by indirect immunofluorescence analysis relative to TPA alone; type: functional; set-up: scale not given: the % may be the effect or the level left
Raji [3] = experiment: Inhibition of tumor promotion in human Raji cells assessed as TPA-induced Epstein-Barr virus early antigen activation at 1000 mol ratio/TPA after 48 hrs by indirect immunofluorescence analysis relative to TPA alone; type: functional; set-up: scale not given: the % may be the effect or the level left
A549 [4] = experiment: Cytotoxicity against human A549 cells after 72 hrs by alamar blue assay; type: functional, cell-based; settings: A549, 72 h
Raji [5] = experiment: Inhibition of tumor promotion in human Raji cells assessed as TPA-induced Epstein-Barr virus early antigen activation at 100 mol ratio/TPA after 48 hrs by indirect immunofluorescence analysis relative to TPA alone; type: functional; set-up: scale not given: the % may be the effect or the level left
[6] = target: Urokinase plasminogen activator surface receptor (Homo sapiens, UniProt Q03405); experiment: Binding affinity to uPAR
Sequence of Urokinase plasminogen activator surface receptor (Q03405 whole entry): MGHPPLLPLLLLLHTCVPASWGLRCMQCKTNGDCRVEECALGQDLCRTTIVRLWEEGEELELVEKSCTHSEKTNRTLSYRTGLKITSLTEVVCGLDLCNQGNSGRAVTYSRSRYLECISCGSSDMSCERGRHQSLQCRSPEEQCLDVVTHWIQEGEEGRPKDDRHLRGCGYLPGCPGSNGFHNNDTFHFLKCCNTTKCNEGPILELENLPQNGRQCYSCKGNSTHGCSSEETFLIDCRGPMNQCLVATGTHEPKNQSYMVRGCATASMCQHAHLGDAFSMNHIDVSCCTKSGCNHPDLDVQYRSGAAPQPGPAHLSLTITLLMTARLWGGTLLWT

MCF7 [7] = experiment: cells; settings: Homo sapiens, MCF7, 48 h
Description: Cytotoxicity against human MCF7 cells after 48 hrs by sulforhodamine B assay

A549 [8] = experiment: Downregulation of uPA protein expression in human A549 cell extract at 0.05 uM after 48 hrs by ELISA (reference value: 11.0000 +/-1.60 ng/ml); type: functional
A549 [9] = experiment: Downregulation of uPA protein expression in human A549 cell extract at 0.10 uM after 48 hrs by ELISA (reference value: 11.0000 +/-1.60 ng/ml); type: functional
A549 [10] = experiment: Downregulation of uPA protein expression in human A549 cell extract at 0.40 uM after 48 hrs by ELISA (reference value: 11.0000 +/-1.60 ng/ml); type: functional
A549 [11] = experiment: Downregulation of uPA protein expression in human A549 cell extract at 0.20 uM after 48 hrs by ELISA (reference value: 11.0000 +/-1.60 ng/ml); type: functional
A549 [12] = experiment: Downregulation of uPA protein expression in human A549 cell extract at 0.137 uM after 48 hrs by ELISA (reference value: 11.0000 +/-1.60 ng/ml); type: functional
A549 [13] = experiment: Downregulation of uPA protein expression in human A549 cell extract at 0.137 uM after 48 hrs by ELISA; type: functional
MCF7 [14] = experiment: Downregulation of uPA protein expression in human MCF7 cell extract at 0.70 ug/well after 48 hrs by ELISA (reference value: 1 1.4000 +/- 1.40 ng/ml)
A549 [15] = experiment: Downregulation of uPA protein expression in human A549 cell extract at 0.275 uM after 48 hrs by ELISA; type: functional
MCF7 [16] = experiment: Downregulation of uPA protein expression in human MCF7 cell extract at 0.35 uM after 48 hrs by ELISA (reference value: 1 1.4000 +/- 1.40 ng/ml); type: functional
A549 [17] = experiment: Downregulation of uPA protein expression in human A549 cell extract at 0.275 uM after 48 hrs by ELISA (reference value: 11.0000 +/-1.60 ng/ml); type: functional
A549 [18] = experiment: Downregulation of uPA protein expression in human A549 cell extract at 0.55 uM after 48 hrs by ELISA; type: functional
MCF7 [19] = experiment: Downregulation of uPA protein expression in human MCF7 cell extract at 0.175 uM after 48 hrs by ELISA (reference value: 1 1.4000 +/- 1.40 ng/ml); type: functional
MCF7 [20] = experiment: Downregulation of uPA protein expression in human MCF7 cell extract at 0.087 uM after 48 hrs by ELISA (reference value: 1 1.4000 +/- 1.40 ng/ml); type: functional
A549 [21] = experiment: Downregulation of uPA protein expression in human A549 cell extract at 1.10 uM after 48 hrs by ELISA (reference value: 11.0000 +/-1.60 ng/ml); type: functional
A549 [22] = experiment: Downregulation of uPA protein expression in human A549 cell extract at 0.55 uM after 48 hrs by ELISA (reference value: 11.0000 +/-1.60 ng/ml); type: functional
A549 [23] = experiment: Downregulation of uPA protein expression in human A549 cell extract at 1.10 uM after 48 hrs by ELISA; type: functional
MCF7 [24] = experiment: Downregulation of uPA protein expression in human MCF7 cell extract at 0.60 uM after 48 hrs by ELISA (reference value: 1 1.4000 +/- 1.40 ng/ml); type: functional
MCF7 [25] = experiment: Downregulation of uPA protein expression in human MCF7 cell extract at 0.30 uM after 48 hrs by ELISA (reference value: 1 1.4000 +/- 1.40 ng/ml); type: functional
MCF7 [26] = experiment: Downregulation of uPA protein expression in human MCF7 cell extract at 0.075 uM after 48 hrs by ELISA (reference value: 1 1.4000 +/- 1.40 ng/ml); type: functional
MCF7 [27] = experiment: Downregulation of uPA protein expression in human MCF7 cell extract at 0.15 uM after 48 hrs by ELISA (reference value: 1 1.4000 +/- 1.40 ng/ml); type: functional

Compound	Activity (Raji [1]) [%]	Activity (Raji [2]) [%]	Activity (Raji [3]) [%]	IC50 (A549 [4]) [nM]	Activity (Raji [5]) [%]	Ki [6] [nM]	IC50 (MCF7 [7]) [µg/well]	other results
Nc1nc2ccccc2[nH]c1=O	46.3	100	12.6	9100	78.1	20.8		
O=C1NC2=Nc3ccccc3NC2=Nc2ccccc21	54.6	100	22.6	13200	86.3	1.33	1.39	
N#Cc1cc(-c2ccccc2)n(-c2ccccn2)c1N				32000		0.0333		
N#Cc1cc(-c2ccccc2)n(-c2cccc(Br)c2)c1N				13000		0.00411		
N#Cc1cc(-c2ccccc2)n(-c2ccncc2)c1N				10700		0.00759		
Nc1c(-c2nc3ccccc3[nH]2)cc(-c2ccccc2)n1-c1nc2ccccc2[nH]1	48.2	100	16.3	7700	80	0.00153	1.62	
CC/C(=C(\c1ccccc1)c1ccc(OCCN(C)C)cc1)c1ccccc1 [TAMOXIFEN]							1.82	
Nc1c(-c2nc3ccccc3[nH]2)cc(-c2ccccc2)n1-c1ccccn1	47.3	100	15.9	8000	79.1	0.00653	0.934	
CC1(C)CC[C@]2(C(=O)O)CC[C@]3(C)C(=CC[C@@H]4[C@@]5(C)CC[C@H](O)C(C)(C)[C@@H]5CC[C@]43C)[C@@H]2C1 [OLEANOLIC_ACID]	30	100	12.7		80			
N#Cc1cc(-c2ccccc2)n(-c2cccc(Cl)c2)c1N				8000		0.00227		
N#Cc1cc(-c2ccccc2)n(-c2nc3ccccc3[nH]2)c1N	49.6	100	19.7	12100	83.5	0.00302	1.28	
Nc1c(-c2nc3ccccc3[nH]2)cc(-c2ccccc2)n1-c1cccc(Cl)c1	48.3	100	17.8	7000	80.1	0.0044	1.7	
N#Cc1cc(-c2ccccc2)n(-c2ccc(Br)cc2)c1N				4600		0.00327		
O=C1NC2=Nc3ccccc3N(Cc3nc4ccccc4[nH]3)C2=Nc2ccccc21	53.1	100	20.5	8500	85.6	0.00636	1.66	
CO[C@@]12[C@H](COC(N)=O)C3=C(C(=O)C(C)=C(N)C3=O)N1C[C@@H]1N[C@@H]12 [MITOMYCIN]								Activity (A549 [8]): 4.3 ng/mL; Activity (A549 [9]): 3.3 ng/mL; Activity (A549 [10]): 2.4 ng/mL; Activity (A549 [11]): 2.6 ng/mL
Nc1c(-c2nc3ccccc3[nH]2)cc(-c2ccccc2)n1-c1ccc(Br)cc1	48	100	18.9	12000	83.2	0.011	0.82	
Nc1c(-c2nc3ccccc3[nH]2)cc(-c2ccccc2)n1Cc1nc2ccccc2[nH]1	48.3	100	18.7	5100	82.6	0.00217	0.972	
Nc1c(-c2nc3ccccc3[nH]2)cc(-c2ccccc2)n1-c1cccc(Br)c1	49.9	100	19.2	13500	84	0.012	2.12	
Nc1c(-c2nc3ccccc3[nH]2)cc(-c2ccccc2)n1-c1ccc(Cl)cc1	50.3	100	20.1	9900	85.6	0.00445	0.934	
CCOC(=O)Cn1c(CN2C3=Nc4ccccc4C(=O)NC3=Nc3ccccc32)nc2ccccc21	43.7	100	10.3	8400	74.4	0.0017	0.934	
Nc1c(-c2nc3ccccc3[nH]2)cc(-c2ccccc2)n1-c1ccncc1	46.9	100	15.3	1100	78.6	0.001	0.705	Activity (A549 [12]): 6.2 ng/mL; Activity (A549 [13]): 44%; Activity (MCF7 [14]): 9.4 ng/mL; Activity (A549 [15]): 53%; Activity (MCF7 [16]): 9 ng/mL; Activity (A549 [17]): 5.2 ng/mL; Activity (A549 [18]): 56%; Activity (MCF7 [19]): 8.7 ng/mL; Activity (MCF7 [20]): 9.8 ng/mL; Activity (A549 [21]): 2.7 ng/mL; Activity (A549 [22]): 4.8 ng/mL; Activity (A549 [23]): 75%
N#Cc1cc(-c2ccccc2)n(-c2ccc(Cl)cc2)c1N				7700		0.00329		
N#CC(C#N)CC(=O)c1ccccc1				9700		0.296		
COc1cccc2c1C(=O)c1c(O)c3c(c(O)c1C2=O)C[C@@](O)(C(=O)CO)C[C@@H]3O[C@H]1C[C@H](N)[C@H](O)[C@H](C)O1 [DOXORUBICIN]								Activity (MCF7 [24]): 2.75 ng/mL; Activity (MCF7 [25]): 3 ng/mL; Activity (MCF7 [26]): 3.4 ng/mL; Activity (MCF7 [27]): 3.2 ng/mL

Reference: ChEMBL document CHEMBL2203035, “Synthesis and docking studies of novel antitumor benzimidazoles” (Bioorg Med Chem, 2012)
